These are literature values, as cited in patent US9011933B2, “Therapeutic methods and pharmaceutical compositions for treating warts with tellurium compounds” (Biomas Ltd., priority 2004, dated 2015).

Where two headings read alike, the source gives them in different places.

The test system of data set [1] is human viruses. Conditions: studies conducted heretofore.
The conditions of data set [2]: rats; intravenous and intramuscular dosage.
Data set [3] relates to warts.

For the compound `Cl[TeH]1(Cl)(Cl)OCCO1` [AS101, ammonium trichloro(dioxyethylene-O,O′)tellurate], in data set [1], the “efficacy as an anti-viral agent against human viruses” value is recorded as “insufficient”. Further, the “LD50 relative to the immunology effective dose” value in data set [2] is reported as 500-1000 folds.

On to `N#N` [liquid nitrogen], for which the “patients remaining clear of warts” value in data set [3] (after a median of 19 months) is recorded as 57%. The “initial cure, patients” value in data set [3] (liquid nitrogen treatment of warts) was 52-83%. With `O=C(O)c1ccccc1O` [salicylic acid], the cure rate in data set [3] (topical standard treatment, after 4 weeks, at best) is listed as not above 40%. As for `O=C(O)C(Cl)(Cl)Cl` [trichloro acetic acid], the cure rate in data set [3] (typical result of treatment) is 64-81%. For the compound bleomycine, the success rate in data set [3] (intralesional therapy) is listed as approximately 70%.
